Measurements as given in US20020037864A1, “2'-Propionate clarithromycin dodecyl sulfate and its preparation and pharmaceutical composition containing the same” (priority 2000, published 2002).
≈ marks a conversion by molar mass, not a printed value. Structures can show the parent of a compound that is named as a salt.

Assays:
[1] = test system: Streptococcus herbarum, Streptococcus haemolyticus, Staphylococcus aureus, Enterococcus faecalis, Staphylococcus epidermidis, Listeria monocytogenes, and ATCC …; assay: Antibacterial activity in vitro comparison assay, agar dilution method (NCCLS); type: cell-based; details: for MIC50 / MIC90: agar dilution, panel of test strains
Method: The primary antibacterial activity in vitro comparison assay between compound (I) (named CES hereafter) and clarithromycin are performed by No. 1 Hospital of Zhejiang Medical University. The agar dilution method, according to the method recognized by NCCLS (“National clinical analysis criterion protocol” (2nd edition), Ye Yingwu and Wang Yusan ed., p562, Southeast University Press), is taken in the following pharmaceutical sensitivity tests against Streptococcus herbarum, Streptococcus haemolyticus, Staphylococcus aureus, Enterococcus faecalis, Staphylococcus epidermidis, Listeria monocytogenes, and ATCC 25923.

mice = assay: Maximal tolerance test; type: in vivo
Method: Acute toxicity animal trial to compound (I) of the present invention is carried out by using 20 KM mice (10 males) weighted 18-22 g. […] Subsequently, the maximal tolerance dose to mice is greater than 8 g/kg as maximal tolerance test determined. […] The mice restored gradually 3 days after administration of compound (I).

[2] = pH value of aqueous mixture (Chinese Pharmacopoeia 2000, Annex VI H); type: physicochemical; details: 0.4 g added into 10 ml water
Method: The pH value of compound (I) of present invention is 5-7 as pH value analyzer (Model PHS-3C, Shanghai leici equipment factory) determined according to the method described in ANNEX VIH (on the measurement of pH value) to Chinese Pharmacopoeia (2000 edition), wherein compound (I) of present invention 0.4 g is added into 10 ml water and stirring extensively.

[3] = Acute toxicity animal trial, oral administration; type: in vivo; details: both sexes, mouse, in vivo, po; orally administrated to KM mice
KM mice = assay: Acute toxicity animal trial, oral administration; type: in vivo; details: mice after administration
[4] = Solubility (physical & chemical property); type: physicochemical
mice and rat = details: orally administrated to mice and rat; cited from earlier work

SMILES	MIC50 [1]	MIC90 [1]	antibacterial activity relative to clarithromycin ([1]; in vitro comparison)	maximal tolerance dose (mice)	pH value [2]	LD50 [3]	death (KM mice)	signs after administration (KM mice)	time to gradual restoration (KM mice)	solubility in acetone, ethanol, methanol and chloroform [4]	solubility in water [4]	LD50 (mice and rat)
CCC(=O)OC1C(O[C@@H]2C(C)[C@H](OC3CC(C)(OC)C(O)C(C)O3)[C@@H](C)C(=O)O[C@H](CC)[C@@](C)(O)[C@H](O)C(C)C(=O)[C@H](C)C[C@@]2(C)OC)OC(C)CC1N(C)C (some centres unmarked) [compound (I), 2′-propionate clarithromycin dodecyl sulfate]	0.25 µg/mL	≧128 μg/ml	comparable to that of clarithromycin	greater than 8 g/kg	5-7	> 7500 mg/kg	no death was observed	furriery flab, drowsiness, spiritless and reduced movement	3 days	freely soluble	almost insoluble	
CC[C@H]1OC(=O)[C@H](C)[C@@H](O[C@H]2C[C@@](C)(OC)[C@@H](O)[C@H](C)O2)[C@H](C)[C@@H](O[C@@H]2O[C@H](C)C[C@H](N(C)C)[C@H]2O)[C@](C)(OC)C[C@@H](C)C(=O)[C@H](C)[C@@H](O)[C@]1(C)O [clarithromycin]	0.25 µg/mL (≈ 0.334 µM)	≧128 μg/ml										2.7 to 3.5 g/kg
